Test results from patent publication US9399133B2, “Non-invasive automated electrical control systems and methods for monitoring animal conditions” (Rhode Island Board of Education, State of Rhode Island and …, priority 2012, dated 2016).

Test system: status epilepticus (SE) induced by lithium-pilocarpine (LP)
Test: Status epilepticus induced by lithium-pilocarpine in rats receiving TFS, alone and combined with subeffective doses of diazepam
Format: in vivo
Excerpt: This study was designed to evaluate status epilepticus (SE) induced by lithium-pilocarpine (LP) in rats receiving TFS, alone and combined with subeffective doses of diazepam, an antiepileptic drug that belongs to the group of benzodiazepines. Diazepam is currently considered one of the drugs of choice to stop SE.

[1] = LP+TFS+DZP group compared with LP, LP+DZP and LP+TFS groups, p<0.001

Structure (SMILES): CN1C(=O)CN=C(c2ccccc2)c2cc(Cl)ccc21 [diazepam]
- latency to mild generalized seizure [1]: significantly increased
- latency to the establishment of the SE [1]: significantly increased
- latency to the first forelimb clonus [1]: significantly increased
- total protection against LP-induced seizures and SE, animals (subeffective dose of diazepam combined with TFS (LP+TFS+DZP group), p<0.0001 vs LP, p<0.003 vs LP+DZP): 62%
- latency and incidence of LP-induced behavioral alterations (subeffective doses of diazepam administered prior to the pilocarpine, without TFS, in comparison to the LP group): Non-significant changes
- rats presenting seizures and SE (subeffective doses of diazepam prior to pilocarpine, without TFS (LP+DZP group)): All rats presented seizures and SE
